Earlier results as cited in patent US20220323445A1, “REDUCING IMMUNOGENICITY TO PEGLOTICASE” (Horizon Therapeutics Ireland DAC, priority 2020, published 2022).

Legend:
[1] = patients treated with allopurinol; cited from earlier work
[2] = prophylaxis of gout; cited from earlier work

| SMILES | patients who develop allergic reactions [1] | severe hypersensitivity syndrome [1] | pharyngolaryngeal pain [2] [%] |
| --- | --- | --- | --- |
| Oc1ncnc2[nH]ncc12 [allopurinol] | Approximately 2% | about 0.4% | – |
| COc1cc2c(c(OC)c1OC)-c1ccc(OC)c(=O)cc1[C@@H](NC(C)=O)CC2 [colchicine] | – | – | 3 |
